Values of other authors in patent US20230363996A1, “HAIR CARE COMPOSITION” (Conopco, Inc., d/b/a UNILEVER, priority 2020, published 2023).

Details: organic/aqueous partition

| SMILES | log P |
| --- | --- |
| O=C(c1ccccc1)c1cc(Cl)ccc1O [benzophenone-7] | 4.51 |
| COc1ccc(C(=O)c2ccccc2O)c(O)c1 [benzophenone-8] | 4.31 |
| COc1ccc(C(=O)c2ccc(OC)cc2O)c(O)c1 [benzophenone-6] | 4.78 |
| COc1ccc(C(=O)c2ccc(C)cc2)c(O)c1 [benzophenone-10] | 4.66 |
| COc1cc(O)c(C(=O)c2ccccc2)cc1S(=O)(=O)O [Benzophenone-4, reference compound] | Benzophenone-4 (logP = 0.99) |
| O=C(c1ccc(O)cc1O)c1ccc(O)cc1O [benzophenone-2] | 3.09 |
| COc1ccc(C(=O)c2ccccc2)c(O)c1 [benzophenone-3] | 3.99 |
| O=C(c1ccccc1)c1ccc(O)cc1O [benzophenone-1] | 3.15 |
